According to publication PMC10818749, “Toxicity Studies of Cardiac-Targeting Peptide Reveal a Robust Safety Profile” (Pharmaceutics, 2024):
“Also recorded” adds a separate entry of the source. Ends that are not written are not given here.

What was measured:
[1] = system: seven ion channels; assay: Eurofins Ion Channel Cardiac Profiler Panel (all seven channels); assay type: cell-based, human; details: CTP 0.1 to 30 µM
[2] = target: HEK-Kv4.3/KChIP2 (Homo sapiens, UniProt Q9NS61+Q9UK17); details: CTP 0.1 to 30 µM; HEK cells; step to 40mV; 0.1% Pluronic F-68
[3] = system: GABAA; assay: GABAA ion channel assay; assay type: cell-based; details: FLIPR Tetra, up to 30 µM, read-out: RC50 (the source's name)
Method: (§1) Ion Channel Assays: Cell lines were grown, plated, and loaded with 1× loading buffer containing 1× dye and 2.5 mM freshly prepared probenecid. Assays were performed, and activity was measured using a FLIPR Tetra. Percent of activation and percent of inhibition were calculated to determine agonist and antagonist activity, respectively. […]
in complementation with EA generating a unit of active β-gal and based assay for the detection of dopamine, norepinephrine or sero-production of a chemiluminescent signal upon the addition of Path- tonin transporter activity in cells expressing these transporters. The Hunter detection reagents. kit employs a fluorescent substrate that mimics the biogenic amine neurotransmitters that are taken into the cell through these specific transporters, resulting in increased intracellular fluorescence inten-sity. […]
KINOMEscan® Assay fluorescence for improved signal/noise ratio. […]
Compounds that bind the kinase active site and directly (sterically) be monitored within a single experiment. or indirectly (allosterically) prevent kinase binding to the immobi-lized ligand, will reduce the amount of kinase captured on the solid Calcium Assay […]
kinase have no effect on the amount of kinase captured on the of changes in intracellular calcium. […] In a similar manner, dissociation con- an increase of dye fluorescence. […]

[4] = target: hERG (Homo sapiens, UniProt Q12809); assay: in vitro; assay type: cell-based; details: up to 30 µM
Method: as §1
The FLIPR Potassium Assay Kit from Molecular Devices is used. It exploits the permeability of thallium ions (Tl+) through both voltage-and ligand-gated potassium (K+) channels. A novel, highly-sensiti ve
Tl+ indicator dye is utilized which produces a bright fluorescent signal upon the binding to Tl+ conducted through potassium chan-nels. […]
KINOMEscan® Assay fluorescence for improved signal/noise ratio.
(§2) The KINOMEscan screening platform employs a novel and propri- Membrane Potential Assay etary active site-directed competition binding assay to quantitatively The FLIPR® Membrane Potential Assay Kit is used which utilizes a pro-measure interactions between test compounds and the kinases. prietary fluorescent indicator dye in combination with a quencher to This robust and reliable assay technology affords investigators the reflect real-time membrane potential changes associated with ion ability to extensively annotate compounds with accurate, precise channel activation and ion transporter proteins. […]

[5] = target: CAV1.2 (Homo sapiens, UniProt Q13936); assay: in vitro; assay type: cell-based; details: blocker; FLIPR Tetra; up to 30 µM; read-out: RC50 (the source's name)
Method: as §1, §2
Compounds that bind the kinase active site and directly (sterically) be monitored within a single experiment. […]
a quantitative, precise and ultra-sensitive qPCR method that detects the receptor signals release of intracellular calcium, which results in the associated DNA label (D). In a similar manner, dissociation con- an increase of dye fluorescence. […]
Neurotransmitter Transporter Uptake Assay spectrophotometric, fluorometric, and luminescent readouts. […]

Sequence of hERG (Q12809 whole entry): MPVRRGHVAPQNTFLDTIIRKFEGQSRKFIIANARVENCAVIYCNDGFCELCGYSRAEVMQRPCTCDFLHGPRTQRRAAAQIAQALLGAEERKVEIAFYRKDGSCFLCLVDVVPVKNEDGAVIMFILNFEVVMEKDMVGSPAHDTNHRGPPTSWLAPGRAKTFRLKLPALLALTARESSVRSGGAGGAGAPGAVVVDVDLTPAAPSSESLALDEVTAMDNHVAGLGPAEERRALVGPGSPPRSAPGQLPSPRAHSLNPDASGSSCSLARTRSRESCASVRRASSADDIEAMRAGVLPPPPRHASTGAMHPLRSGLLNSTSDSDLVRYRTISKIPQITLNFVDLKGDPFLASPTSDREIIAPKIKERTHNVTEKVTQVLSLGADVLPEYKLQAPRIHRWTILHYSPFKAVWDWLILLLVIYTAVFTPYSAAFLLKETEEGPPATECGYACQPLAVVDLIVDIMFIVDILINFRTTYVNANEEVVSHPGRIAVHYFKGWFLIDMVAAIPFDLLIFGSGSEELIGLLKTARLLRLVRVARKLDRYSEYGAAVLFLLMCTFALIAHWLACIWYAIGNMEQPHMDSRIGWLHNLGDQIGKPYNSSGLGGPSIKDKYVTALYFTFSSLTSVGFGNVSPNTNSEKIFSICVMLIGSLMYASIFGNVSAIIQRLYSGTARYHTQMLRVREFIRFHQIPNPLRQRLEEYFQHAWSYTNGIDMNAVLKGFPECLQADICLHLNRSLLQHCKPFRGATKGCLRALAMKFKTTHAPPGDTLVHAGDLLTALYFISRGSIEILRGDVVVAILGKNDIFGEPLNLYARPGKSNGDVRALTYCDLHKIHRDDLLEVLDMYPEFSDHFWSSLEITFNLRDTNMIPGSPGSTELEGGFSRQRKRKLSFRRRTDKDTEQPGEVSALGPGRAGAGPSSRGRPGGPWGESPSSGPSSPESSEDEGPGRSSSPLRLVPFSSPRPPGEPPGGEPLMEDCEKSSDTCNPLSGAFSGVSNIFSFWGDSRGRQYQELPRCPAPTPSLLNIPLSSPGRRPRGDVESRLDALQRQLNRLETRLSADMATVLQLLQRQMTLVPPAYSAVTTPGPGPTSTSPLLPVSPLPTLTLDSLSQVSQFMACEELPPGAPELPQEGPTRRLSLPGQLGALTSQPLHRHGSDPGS
Sequence of HEK-Kv4.3/KChIP2 (Q9UK17 whole entry): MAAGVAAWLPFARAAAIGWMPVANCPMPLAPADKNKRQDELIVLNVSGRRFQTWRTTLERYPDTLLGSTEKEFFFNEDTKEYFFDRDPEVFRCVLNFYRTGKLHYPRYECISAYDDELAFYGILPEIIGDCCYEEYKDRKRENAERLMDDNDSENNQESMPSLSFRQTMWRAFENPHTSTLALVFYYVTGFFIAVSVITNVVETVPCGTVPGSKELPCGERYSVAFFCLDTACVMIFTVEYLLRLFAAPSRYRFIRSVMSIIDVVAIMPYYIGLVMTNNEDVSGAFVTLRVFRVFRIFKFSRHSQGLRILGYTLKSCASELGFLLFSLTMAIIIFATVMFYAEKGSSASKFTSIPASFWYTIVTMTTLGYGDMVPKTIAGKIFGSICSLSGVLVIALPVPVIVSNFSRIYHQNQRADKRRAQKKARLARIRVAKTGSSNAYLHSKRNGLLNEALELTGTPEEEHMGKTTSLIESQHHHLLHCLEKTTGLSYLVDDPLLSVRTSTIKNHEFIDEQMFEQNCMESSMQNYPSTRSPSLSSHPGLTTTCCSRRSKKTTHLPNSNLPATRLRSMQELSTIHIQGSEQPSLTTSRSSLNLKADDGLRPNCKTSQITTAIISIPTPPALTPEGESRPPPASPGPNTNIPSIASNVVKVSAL
Sequence of HEK-Kv4.3/KChIP2 (Q9NS61 whole entry partner): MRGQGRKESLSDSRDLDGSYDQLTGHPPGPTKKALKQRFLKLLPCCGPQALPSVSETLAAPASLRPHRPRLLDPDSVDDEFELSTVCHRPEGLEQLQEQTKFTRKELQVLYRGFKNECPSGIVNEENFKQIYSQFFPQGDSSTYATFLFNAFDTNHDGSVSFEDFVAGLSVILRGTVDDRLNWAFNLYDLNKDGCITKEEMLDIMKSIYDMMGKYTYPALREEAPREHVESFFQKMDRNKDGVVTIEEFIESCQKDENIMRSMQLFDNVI

APWHLSSQYSRT [CTP]
IC50 values ([1]; seven ion channels): not calculable
inhibition/activation across all seven ion channels ([1]; vs control substances): no inhibition/activation was observed; also recorded: did not inhibit the activation of any tested
Estimated IC50 [2]: N/C (Not calculable, inhibition >25% was not observed.)
EC50 ([3]; agonist (opener)): > 30 µM
IC50 ([3]; antagonist (blocker)): > 30 µM
blocking or activation ([4]; SAFETYscan ion channel assay): no significant blocking or activation
IC50 ([4]; human, blocker, FLIPR Tetra, read-out: RC50 (the source's name)): > 30 µM
IC50 [5]: > 30 µM
